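Values below derive from 48-hour exposures of cells grown in 96-well plates, with endpoints linearly interpolated between the two concentrations bracketing the appropriate inhibition level. GI50 is the concentration that inhibits growth by half. TGI: total growth inhibition.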
Experiments:
Assay in all cases: inhibition of tumour cell growth, NCI panel, 48 h
DMS 273 small cell lung = system: DMS 273 small cell lung
RXF-631 renal = system: RXF-631 renal
MDA-N = system: MDA-N
PC-3 prostate = system: PC-3 prostate
M19-MEL melanoma = system: M19-MEL melanoma
DMS 114 small cell lung = system: DMS 114 small cell lung
BT-549 breast = system: BT-549 breast
DLD-1 colon = system: DLD-1 colon
XF 498 CNS = system: XF 498 CNS

Compound | TGI (PC-3 prostate) [µM] | TGI (BT-549 breast) [µM] | TGI (DLD-1 colon) [µM] | GI50 (PC-3 prostate) [µM] | GI50 (BT-549 breast) [µM] | also measured
O=C(O)C1NCCc2c1[nH]c1ccccc21 (stereo unspecified) | > 10 | > 10 | > 100 | – | – | TGI (DMS 273 small cell lung): > 100 µM; TGI (RXF-631 renal): > 100 µM; TGI (MDA-N): > 10 µM; TGI (M19-MEL melanoma): > 100 µM; TGI (DMS 114 small cell lung): > 100 µM
ClCc1ccc(-c2ccc(Cn3cnc4c(Cl)nc(Cl)nc43)cc2)cc1 | 5.28 | 15.5 | – | 2.21 | 3.71 | –
O=C1OCc2c1cc(F)cc2[N+](=O)[O-] | > 100 | > 100 | – | > 100 | > 100 | –
Cn1ncc2c(/N=C/c3cccs3)[nH]c(=S)nc21 | > 100 | > 91.3 | – | 40.7 | 33.2 | –
Cc1ccccc1NC(=O)C(=O)C(c1cnc2ccc([N+](=O)[O-])cc2n1)[N+](=O)[O-] (stereo unspecified) | – | – | > 100 | – | – | TGI (DMS 273 small cell lung): > 100 µM; TGI (RXF-631 renal): > 100 µM; TGI (M19-MEL melanoma): > 100 µM; TGI (DMS 114 small cell lung): > 100 µM
C=C1C(=O)O[C@@H]2C(=O)[C@@H](C)[C@@H]3C=CC(=O)[C@@]3(C)[C@@H](OC(=O)/C(C)=C\C)[C@H]12 | 6.04 | 2.01 | – | – | – | TGI (MDA-N): 2.99 µM
O=C(Nc1ccccc1)Nc1cccc(-n2cc(-c3ccncc3)c(-c3ccc(O)c(Cl)c3)n2)c1 | 19.6 | 12.7 | – | 3.19 | 3.29 | –
COc1ccc(/C(C)=C(\c2ccc(Cl)cc2)c2ccc(OCCN3CCCC3)cc2)cc1F | 6.71 | 6.74 | – | 3.04 | 3.24 | –
Nc1ncnc(NC2C=C(CO)C(O)C2O)c1[N+](=O)[O-] (stereo unspecified) | – | – | > 100 | – | – | TGI (DMS 273 small cell lung): > 100 µM; TGI (RXF-631 renal): > 100 µM; TGI (M19-MEL melanoma): > 100 µM; TGI (DMS 114 small cell lung): > 100 µM
S=c1nc2[nH]ncc2c(N/N=C/c2ccccc2)[nH]1 | > 100 | > 100 | – | > 100 | > 100 | –
CCOC(=O)c1c(-c2ccccc2)[n+](=O)c2ccc(Cl)cc2n1[O-] | 12 | 15.7 | – | 3.05 | 3.87 | –
O=C(O)CC(Nc1ccccc1)C(=O)O (stereo unspecified) | > 100 | > 100 | – | – | – | TGI (MDA-N): > 100 µM
C#CCN=C(N/N=C/c1ccc([N+](=O)[O-])o1)NS(=O)(=O)c1cc(C)c(Cl)cc1SCC(N)=O | 38.7 | 9.43 | – | 20.4 | 1.79 | –
O=C(O)c1ccc(O)c(N=Nc2cc(S(=O)(=O)O)c3ccccc3c2O)c1 | – | – | > 100 | – | – | TGI (DMS 273 small cell lung): > 100 µM; TGI (RXF-631 renal): > 100 µM; TGI (M19-MEL melanoma): > 100 µM; TGI (DMS 114 small cell lung): > 100 µM
COc1cc(C#N)cc(OC)c1OCCOCCOc1c(OC)cc(C#N)cc1OC | > 100 | 73.2 | – | 31.9 | 25.3 | –
COc1cc(/C=C/C(=O)c2ccc(Nc3ncnc4ccccc34)cc2)cc(OC)c1 | 31.6 | 11.9 | – | 3.36 | 3.34 | –
COc1ccc2c(c1)CCc1c(-c3noc4c3CCc3cc(OC)ccc3-4)noc1-2 | > 100 | > 100 | – | – | – | TGI (MDA-N): > 100 µM
COc1ccc(/C=C2\CN(Cc3cn(CCCNc4ccnc5cc(Cl)ccc45)nn3)C/C(=C\c3ccc(OC)c(OC)c3)C2=O)cc1OC | 3.22 | 3.79 | – | 0.843 | 1.81 | –
COc1ccc(NC(=O)C(=O)C2CNC(=O)NC2=O)c(OC)c1 (stereo unspecified) | – | – | > 100 | – | – | TGI (XF 498 CNS): > 100 µM; TGI (DMS 273 small cell lung): > 100 µM; TGI (DMS 114 small cell lung): > 100 µM

Compound | TGI (PC-3 prostate) [µM] | TGI (BT-549 breast) [µM] | TGI (DLD-1 colon) [µM] | GI50 (PC-3 prostate) [µM] | GI50 (BT-549 breast) [µM] | also measured
CC(C)NCC(O)COC(=O)c1cccs1 (stereo unspecified) | – | – | > 100 | – | – | TGI (XF 498 CNS): > 100 µM; TGI (DMS 273 small cell lung): > 100 µM; TGI (RXF-631 renal): > 100 µM; TGI (M19-MEL melanoma): > 100 µM
NC1=C(Cl)C(=O)c2ccc(S(N)(=O)=O)cc2C1=O | 1.5 | 0.314 | – | 0.314 | 0.171 | –
CCOC(=O)/C(=C/c1ccc([N+](=O)[O-])cc1)C(=O)c1ccccc1 | 6.11 | 4.37 | – | 2.46 | 2.04 | –
N=C1N(c2ccccc2)C(=O)C23CCCC2C13N1CCOCC1 (stereo unspecified) | – | – | > 100 | – | – | TGI (DMS 273 small cell lung): > 100 µM; TGI (RXF-631 renal): > 100 µM; TGI (M19-MEL melanoma): > 100 µM; TGI (DMS 114 small cell lung): > 100 µM
Cc1cc(C)c(O)c(Cc2cccc(Cc3cc(C)cc(C)c3O)c2O)c1 | > 100 | > 100 | – | – | – | TGI (MDA-N): > 100 µM
C=C1C(=O)O[C@H]2[C@H]1CC/C(Cn1cc(Cn3ccc4ccccc43)nn1)=C\CC[C@@]1(C)O[C@@H]21 | 2.98 | 2.69 | – | 1.47 | 1.38 | –
CC1(C)OC(C(N)=O)=C(C(N)=O)O1 | – | – | > 100 | – | – | TGI (XF 498 CNS): > 100 µM; TGI (DMS 273 small cell lung): > 100 µM; TGI (M19-MEL melanoma): > 100 µM; TGI (DMS 114 small cell lung): > 100 µM
NC(CNO)C(=O)O (stereo unspecified) | > 100 | > 100 | – | – | – | TGI (MDA-N): > 100 µM
COC(=O)C(=O)C(C(=O)C(=O)Nc1ccc(Cl)cc1C)c1nc2ccc(C(=O)c3ccccc3)cc2[nH]c1=O (stereo unspecified) | – | – | > 100 | – | – | TGI (DMS 273 small cell lung): > 100 µM; TGI (RXF-631 renal): > 100 µM; TGI (M19-MEL melanoma): > 100 µM; TGI (DMS 114 small cell lung): > 100 µM
Cc1ccc([N+](=O)[O-])cc1NC(=O)C(=O)Cc1occc(=O)c1O | – | – | > 100 | – | – | TGI (XF 498 CNS): > 100 µM; TGI (M19-MEL melanoma): > 100 µM; TGI (DMS 114 small cell lung): > 100 µM
COC(=O)C(C)NP(=O)(OCc1ccc(Cn2cnc3c(=O)[nH]c(N)nc32)cc1)Oc1ccccc1 (stereo unspecified) | > 100 | > 100 | – | > 100 | > 100 | –
CCC(C)OC(=O)C1C2CCC(O2)C1C(=O)O (stereo unspecified) | – | – | > 77.7 | – | – | TGI (DMS 273 small cell lung): > 60.1 µM; TGI (M19-MEL melanoma): > 100 µM; TGI (DMS 114 small cell lung): > 56.4 µM
O=C1/C(=C\C(Cl)=C/c2ccc([N+](=O)[O-])cc2)SC(=S)N1CCc1ccc(O)cc1 | 0.845 | 1.28 | – | 0.269 | 0.332 | –
O=C1C(=O)c2ccccc2-c2ccccc21 | 2.79 | 3.07 | – | 1.31 | 1.66 | –
CCOC(=O)c1c(C)nc2ccc(Cl)cc2c1-c1ccccc1 | 65.9 | 57.2 | – | 20 | 22.5 | –
O=c1cc(-c2ccc(Cl)cc2)[nH]c2ncccc12 | > 100 | > 100 | – | 47.6 | – | GI50 (MDA-N): 8.26 µM; TGI (MDA-N): 26.1 µM
Oc1ccc(CNCc2ccccc2)c2cccnc12 | 59.8 | > 100 | – | – | – | TGI (MDA-N): > 100 µM
O=C1C(=O)N(C(=O)c2ccc(Cl)c(Cl)c2)c2ccc(Cl)cc21 | – | – | > 100 | – | – | TGI (DMS 273 small cell lung): > 100 µM; TGI (M19-MEL melanoma): 39.9 µM; TGI (DMS 114 small cell lung): 66 µM
COc1ccc(-c2cc(=O)c3c(OC)c(OC)c(OC)c(OC)c3o2)cc1OC | – | > 100 | – | – | – | TGI (MDA-N): > 100 µM

Reference: PubChem BioAssay (NCI)
